Measured values: paper PMC3939009, “Thrombin inhibitory activity of some polyphenolic compounds” (Medicinal Chemistry Research, 2013)
pIC50, pKd: −log10 of the molar value. Where two headings read alike, the source gives them in different places.

Legend:
[1] = target: T1, human thrombin (Homo sapiens, UniProt P00734); assay: Thrombin-induced fibrinogen polymerization; assay type: biochemical; parameters: Thrombin, also known as an active plasma coagulation factor II; purchased Sigma-Aldrich Chemical Co. (St. Louis, MO, USA) T7009; settings: thrombin preincubated with compound, 10 min 37 °C
Method: In these preparations, to nine volumes of thrombin one volume of polyphenolic compounds was added (final thrombin concentration was 15.8 nM). All tested compounds were dissolved in 50 % DMSO to the initial concentration of 10 mM; other solutions of compounds were also prepared in 50 % DMSO (prepared in 50 mM TBS, pH 7.4). […] Polymerization of fibrin was monitored at 595 nm using a 96-well microtiter plate reader. To each reaction well of the microtiter plate, 100 μl of fibrinogen (3 mg/ml) in 50 mM TBS and 5 mM CaCl2, pH 7.4, were added. […] The maximal velocity of the polymerization process (V max, Δm OD/min) for each absorbance curve was determined (Nowak et al., [2007]).

[2] = target: T1, human thrombin; assay: Analysis of thrombin inhibition parameters (Lineweaver–Burk curves); assay type: biochemical; parameters: Thrombin, also known as an active plasma coagulation factor II; purchased Sigma-Aldrich Chemical Co. (St. Louis, MO, USA) T7009; settings: for k cat: compound at IC50 concentration, k cat = V max/E 0, control 29.1; for Type of inhibition: from Lineweaver–Burk curves; for V max of chromogenic substrate hydrolysis by thrombin / K m of chromogenic substrate hydrolysis by thrombin: thrombin incubated with compound at IC50 concentration; for V max of chromogenic substrate hydrolysis by thrombin: control 30.7; for K m of chromogenic substrate hydrolysis by thrombin: control 158.7
Method: Absorbance was monitored every 12 s for 10 min in a 96-well microplate reader. The velocity of reaction was expressed as the increase in product (pNA) over time (∆ μmol/min) using a computer program Mikcroplate Manager® 8 and the extinction coefficient of p-nitroaniline. […] Then, the Lineweaver–Burk ([1934]) curves for thrombin in the presence and in the absence of polyphenol compounds were plotted. The Lineweaver–Burk equation, which is a transformation of the Michaelis–Menten model, looks as follows: 1/V=Km/Vmax·1/[S]+1/Vmax

[3] = system: human thrombin; assay: Thrombin-induced platelet aggregation (turbidimetric); assay type: cell-based; settings: compound preincubated with thrombin
Method: Blood samples in 0.32 % sodium citrate from healthy volunteers without cardiovascular disorders were collected, untreated with antiplatelet drugs. […] Platelets were isolated from PRP using BSA–Sepharose 2B gel filtration method according to Walkowiak et al. ([2000]). […] In these preparations, to nine volumes of thrombin one volume of polyphenolic compounds was added (final thrombin concentration was 15.8 nM). All tested compounds were dissolved in 50 % DMSO to the initial concentration of 10 mM; other solutions of compounds were also prepared in 50 % DMSO (prepared in 50 mM TBS, pH 7.4). […] The platelet aggregation was measured by turbidimetric method (Saluk-Juszczak et al., [2007]) using dual-channel Chrono-log optical aggregometer (Chronolog, USA). […] Platelet suspensions were pre-warmed at 37 °C with stirring.

[4] = target: T1, human thrombin; assay: SDS-PAGE analysis of thrombin-induced cross-linked fibrin formation; assay type: biochemical; parameters: Thrombin, also known as an active plasma coagulation factor II; purchased Sigma-Aldrich Chemical Co. (St. Louis, MO, USA) T7009; host or cells: purified from human plasma; settings: cyanin 75 and 750 μM, (+)-catechin 125 and 1,000 μM, (−)-epicatechin 150 and 1,000 μM
Method: In these preparations, to nine volumes of thrombin one volume of polyphenolic compounds was added (final thrombin concentration was 15.8 nM). All tested compounds were dissolved in 50 % DMSO to the initial concentration of 10 mM; other solutions of compounds were also prepared in 50 % DMSO (prepared in 50 mM TBS, pH 7.4). The final concentration of DMSO in thrombin samples was 5 %. To prepare thrombin control samples, the same volume of solvent (50 % DMSO prepared in 50 mM TBS, pH 7.4) was added as in the case of the compound volume and warmed for 10 min to 37 °C.
The reactions incubated at 37 °C were stopped after 5, 15 and 30 min by adding 150 μl of lysis buffer (0.125 M Tris/HCl, 4 % SDS, 8 M urea, 10 % β-mercaptoethanol, pH 6.8). Samples were subjected to SDS-PAGE (polyacrylamide concentration—7.5 %) using Mini-Protean Electrophoresis Cell (Bio-Rad, Hercules, CA). Proteins were stained with Coomassie Brilliant Blue R250 (CBB).

[5] = target: T1, human thrombin; assay: BIAcore (SPR) analysis of binding to immobilized thrombin; parameters: Thrombin, also known as an active plasma coagulation factor II; purchased Sigma-Aldrich Chemical Co. (St. Louis, MO, USA) T7009; settings: for pKd: read-out: K D, equilibrium dissociation constant; for kon: read-out: k a, association rate; for koff: read-out: k d, dissociation rate; for Response (RU): analyte 1,000 μM, thrombin immobilized on CM5 chip
Method: The biosensor assays were performed using the BIAcore 1000 biosensor system. All biosensor analyses were performed with a phosphate-buffered saline (PBS), pH 7.4, as a running buffer. […] The immobilization of thrombin on a biosensor carboxylmethyl dextran surface was performed according to the BIA applications Handbook (BIAcore, [1994]). The process of protein immobilization was performed on a sensor chip CM5 surface by the positively charged functional groups of protein amino acids. The immobilization process consisted of four steps: preconcentration, activation, ligand immobilization and deactivation of the residual NHS esters. […] The temperature during the whole experiment was also constant and was set to 25.0 °C. […] Each of these solutions (10 μl) was injected into an empty sensor chip channel. […] The amount of injected activation mixture was modified, to regulate the amount of immobilized ligand. […] The conditions of the latter experiments were established by numerous pre-tests. The assessed parameters included: the buffer flow rate, the volume of analyte injection, the concentration of analytes, types and concentration of regenerators. […] For each injection of analyte solution, the volume used was 100 μl. After injection of analyte was completed, the dissociation step occurred and the level of the interaction ligand-analyte was measured. During dissociation, the particles non-covalently bound to the ligand were washed out from the working channel. […] To do these calculations, the formulas presented below were used: the association rate […]]; the dissociation rate -d[AB]/dt=kd·[AB]; the equilibrium constants: KA=[AB]/[A]·[B]=ka/kd KD=[A]·[B]/[AB]=kd/ka.

[6] = target: T1, human thrombin; assay: Amidolytic activity of thrombin (hydrolysis of chromogenic substrate D-Phe-Pip-Arg-pNA); assay type: biochemical; parameters: Thrombin, also known as an active plasma coagulation factor II; purchased Sigma-Aldrich Chemical Co. (St. Louis, MO, USA) T7009; host or cells: purified from human plasma; settings: at 375 μM substrate concentration; compounds 0.1–1,000 μM, preincubation 10 min 37 °C; read-out: IC50, amidolytic activity of human thrombin
Method: All tested compounds were dissolved in 50 % DMSO to the initial concentration of 10 mM; other solutions of compounds were also prepared in 50 % DMSO (prepared in 50 mM TBS, pH 7.4). The final concentration of DMSO in thrombin samples was 5 %. To prepare thrombin control samples, the same volume of solvent (50 % DMSO prepared in 50 mM TBS, pH 7.4) was added as in the case of the compound volume and warmed for 10 min to 37 °C.
To each reaction well, 40 μl of 3 mM chromogenic substrate was added. To initiate the chromogenic reaction, 280 μl of control thrombin (without tested compounds) or thrombin after preincubation with a polyphenolic compound to every reaction well in the same moment was added. The absorbance value was monitored every 12 s for 10 min. The maximal velocity of the reaction (V max, Δm OD/min) for each absorbance curve was determined. IC50 value (parameter) for every polyphenolic compound from inhibition curves was estimated.

Row | Structure (SMILES) | Effect on thrombin ability to induce fibrinogen polymerization [1] | k cat [2] [s⁻¹] | Type of inhibition [2] | V max of chromogenic substrate hydrolysis by thrombin [2] | K m of chromogenic substrate hydrolysis by thrombin [2] | Effect on thrombin ability to stimulate platelet aggregation [3] | Changes in electrophoresis of fibrinogen treated with preincubated thrombin [4] | K A, equilibrium association constant ([5]; 5 sensorgrams, 50 to 1,000 μM) [M⁻¹] | pKd ([5]; 5 sensorgrams, 50 to 1,000 μM) | kon ([5]; 5 sensorgrams, 50 to 1,000 μM) [M⁻¹ s⁻¹] | koff ([5]; 5 sensorgrams, 50 to 1,000 μM) [s⁻¹] | Response (RU) [5] [RU] | pIC50 [6] | K A, equilibrium association constant [5] [M^–1]
1 | Oc1cc(O)c2c(c1)O[C@H](c1ccc(O)c(O)c1)[C@@H](O)C2 [(+)-Catechin, (+)-catechin] | inhibitory effect of polymerization of human fibrinogen was not observed | 29.5 | competitive inhibitors | 31.2 10^−6 mol/min | 700.1 10^−6 M | no effect on thrombin ability to stimulate platelets aggregation | no changes were observed | 20300 | 4.31 | 3.62 | 0.000178 | 717 | 3.90 | 
2 | Oc1cc(O)c2c(c1)O[C@H](c1ccc(O)c(O)c1)[C@H](O)C2 [(−)-Epicatechin, (−)-epicatechin] | inhibitory effect of polymerization of human fibrinogen was not observed | 27.8 | competitive inhibitors | 29.4 10^−6 mol/min | 481.5 10^−6 M | no effect on thrombin ability to stimulate platelets aggregation | no changes were observed | 192 | 2.28 | 4.37 | 0.0227 | 431 | 3.82 | 192
3 | OC[C@H]1O[C@@H](Oc2cc3c(O[C@@H]4O[C@H](CO)[C@@H](O)[C@H](O)[C@H]4O)cc(O)cc3[o+]c2-c2ccc(O)c(O)c2)[C@H](O)[C@@H](O)[C@@H]1O [Cyanin, cyanin] | inhibitory effect of polymerization of human fibrinogen was not observed | 19.7 | mixed type of inhibition | 20.8 10^−6 mol/min | 344.6 10^−6 M | no effect on thrombin ability to stimulate platelets aggregation | no changes were observed | 115 | 2.06 | 0.95 | 0.00824 | 827 | 4.12 | 115
